Laboratory results published in patent publication US7803364B2, “Multipotent neural stem cells” (The Cleveland Clinic Foundation, priority 2005, dated 2010).

Columns and labels:
[1] = tested on: βT4 secondary neurospheres; test: Secondary βT4 neurosphere differentiation into TuJ1-positive neurons and O4-positive oligodendrocytes; format: cell-based, rat; conditions: PDGF-A alone or in combination with SHH
Description: With this assay, we will determine whether growth factors or secreted products from activated immune cells affect βT4 neurosphere behavior. Using standard neurosphere medium and N2 only medium as positive and negative controls for cell growth, we tested the effects of two concentrations of sonic hedgehog on oligodendrocyte and neuron production.
If βT4 cells represent a CNS stem cell, growth factors should induce βT4 cell division and regulate the production of mature CNS cells. […]
Undissociated secondary neurospheres were plated onto PLL-coated coverslips and analyzed at either 24 hours or 7 days in vitro with DMEM/F12, Glutamax and Penicillin-Streptomycin (1%, Cellgro) with different supplements as follows: N2 (1%); N2 (1%) plus sonic hedgehog (SHH, 1000 ng/ml, R&D, Minneapolis, Minn.); “neurosphere medium” (N2 (1%), EGF (20 ng/ml), FGF2, 20 ng/ml).
βT4 positive cell percentage in control and Ara-C-treated cultures were quantified by counting 10 randomly selected fields using standard fluorescence microscopy and a 20× objective. βT4 positive primary neurosphere and secondary neurosphere percentage were quantified by counting 10 randomly selected fields using a 10× objective. […]

[2] = tested on: βT4 cells in neurospheres from P4 rat brain lateral ventricle; test: Ara-C enrichment of βT4 cells in neurosphere cultures; format: cell-based
Description: We developed in vitro methods to study and enrich for βT4 cells. We harvested the lateral and medial wall of the lateral ventricles from P4 rat brain. As shown schematically in FIG. 12A, the tissue was dissociated into single cells and placed in neurosphere assay medium. Four days later, we attached the neurospheres to coverslips and stained for βT4. […] In an attempt to purify or enrich for βT4 cells, we treated P4 neurospheres (on coverslips) with cytosine-β-D-arabinofuranoside (Ara-C; for 4 days), which kills actively dividing cells. We dissociated the remaining cells and placed them in neurosphere-forming conditions for 4 days, plated the resulting neurospheres on coverslips and stained them for βIV tubulin.
The “dissociated” cultures had growth properties similar to the plated primary neurospheres.
Primary neurospheres, generated as described above, were dissociated with trypsin and trituration and then plated onto poly-L-lysine-coated (P-1274, Sigma) coverslips (10^5 cells/12 mm coverslip). The coverslips were incubated in neurosphere medium with cytoarabinoside-C (Ara-C, 10 μM, Sigma) for 4 days. Cells were detached from the coverslips by incubation on ice. […] The neurospheres resulting from these procedures are defined as secondary neurospheres and were analyzed by immunocytochemistry as described above or induced to differentiate.

Substance	effect on differentiation of secondary neurospheres [1]	enrichment in βT4 cells ([2]; Ara-C 4 days versus culture without Ara-C (0.03%))	percent of cells in secondary neurospheres βT4-positive ([2]; secondary neurospheres made from Ara-C-resistant primary neurospheres)
PDGF-A: platelet-derived growth factor added alone or with SHH	had not effect on differentiation	–	–
cytosine-β-D-arabinofuranoside [Ara-C]	–	2700 fold	> 83%
